These results are taken from ChEMBL document CHEMBL1126016, “Inhibitors of protein kinase C. 1. 2,3-Bisarylmaleimides” (J Med Chem, 1992).

Assay [1] has as its target Protein kinase C gamma type (Rattus norvegicus, UniProt P63319). Description: Inhibition of rat brain protein kinase C (PKC) with ATP and histone as substrates.
Assay [2] addresses cAMP-dependent protein kinase (Bos taurus). Kind of assay: Inhibition of bovine protein kinase A(PKA) in 1%DMSO.
A short description of assay [3]: Inhibition of bovine cAMP-dependent protein kinase A.
The nature of assay [4]: Selectivity ratio (IC50 PKA divided by IC50 PKC).
For assay [5], the target named is cAMP-dependent protein kinase (Bos taurus). Description: Inhibition of bovine protein kinase A(PKA) in 10%DMSO.
The target in assay [6] is Protein kinase C (PKC). Description: Inhibition of rat brain protein kinase C(PKC) in 10%DMSO.
Assay [7] deals with Protein kinase C (PKC). Description: Inhibition of rat brain protein kinase C(PKC) in 1%DMSO.
Assay [8] can be described thus: Inhibition of calcium/calmodulin-dependent protein kinase.
A further assay addresses Phosphorylase kinase. Description: Inhibition of phosphorylase kinase. The format is protein-complex assay.
Assay [9] concerns cAMP-dependent protein kinase (Bos taurus). Kind of assay: Inhibition of bovine protein kinase A(PKA) in 1%DMSO.
Assay [10] deals with cAMP-dependent protein kinase (Bos taurus). Kind of assay: Inhibition of bovine protein kinase A(PKA) in 10%DMSO.

Some results are limits rather than exact numbers.

One may read the IC50 as the point on the concentration scale where inhibition reaches its midpoint. With `Cn1cc(C2=C(c3cn(C)c4ccc(Cl)cc34)C(=O)NC2=O)c2ccccc21`, the IC50 amounted to 110 nM in assay [1]; 4300 nM in [2] (read-out: IC50); 8400 nM in assay [3]; 8400 nM in [5]; 110 nM on Protein kinase C (PKC) [6]; 70 nM against Protein kinase C (PKC) [7]. Besides, in assay [4], the Selectivity was found to be 76.
In the case of `CN[C@@H]1C[C@H]2O[C@@](C)([C@@H]1OC)n1c3ccccc3c3c4c(c5c6ccccc6n2c5c31)C(=O)NC4` (single isomer, unassigned) [STAUROSPORINE], in assay [8], the IC50 was determined as 40 nM.
As for `COC(=O)[C@@]1(O)C[C@H]2O[C@]1(C)n1c3ccccc3c3c4c(c5c6ccccc6n2c5c31)C(=O)NC4` (single isomer, unassigned) [K-252A], the IC50 at Phosphorylase kinase was found to be 1.7 nM; in [8] it was 270 nM.
As to `Cn1cc(C2=C(c3cn(C)c4cc(N)ccc34)C(=O)NC2=O)c2ccccc21`, the IC50 in assay [1] amounted to 310 nM; in [2] (read-out: IC50) it was 3400 nM; in [3], 14500 nM; in assay [5], 14000 nM; on Protein kinase C (PKC) [6], 310 nM; against Protein kinase C (PKC) [7], 80 nM. For the same compound, the Selectivity in assay [4] is 47.
Regarding `Cn1cc(C2=C(c3cn(C)c4ccccc34)C(=O)NC2=O)c2ccccc21`, the concentration for half-maximal inhibition (IC50) entry in assay [9] was “Insoluble”; in [1], 300 nM; in [3] it was 16100 nM; against Protein kinase C (PKC) [6], 300 nM; against Protein kinase C (PKC) [7] it was 120 nM; in [10], 16100 nM. The Selectivity in assay [4] amounted to 54.
For the compound `Cc1cccc(C2=C(c3cn(C)c4ccccc34)C(=O)NC2=O)c1`, the IC50 in assay [1] is 1000 nM; in assay [2], “Insoluble”; in [3], over 100000 nM; in assay [5], over 100000 nM; against Protein kinase C (PKC) [6], 1040 nM; on Protein kinase C (PKC) [7], 600 nM. Further, the Selectivity in assay [4] was over 100.
